EC50, IC50 and Activity data for 13 molecules are collected here from ChEMBL document CHEMBL1153302, “Synthesis and biological evaluation on novel analogs of 9-methylstreptimidone, an inhibitor of NF-kappaB” (Bioorg Med Chem Lett, 2009).

Assay [1] relates to RAW264.7. Put plainly: Cytotoxicity against mouse RAW264.7 cells by MTT colorimetric assay in presence of LPS. In kind it is functional. As to conditions: read-out: ED50 (the source's name). Background: Formazan colour is commonly taken as a measure of viable cells.
The nature of assay [2]: Inhibition of NF-kappaB in LPS-induced mouse RAW264.7 cells assessed as inhibition of NO production after 24 hrs. In kind it is cell-based.
Assay [3] has as its system RAW264.7. The experiment in a line: Inhibition of NF-kappaB in LPS-induced mouse RAW264.7 cells assessed as inhibition of iNOS expression after 24 hrs. In kind it is cell-based.
The next assay relates to Jurkat. The experiment in a line: Induction of apoptosis in human Jurkat cells. Type of assay: functional, cell-based.
In the next assay the test system is T-cell. Put plainly: Induction of apoptosis in T cell leukemia. Type of assay: functional, cell-based.
The mark [4] stands for this setting: Mus musculus, RAW264.7, 24 h, read-out: IC50.

In brackets after ≈: the same amount, converted by molar mass. Activity calls are given as the source filed them. The calls are words filed in the database; no cut-off is given here.

In general, IC50 refers to the concentration that inhibits the measured activity by half. For the molecule `CC(C)(C)OC(=O)/C=C/CC1CC(=O)NC(=O)C1`, in the assay with RAW264.7 [1], the EC50 is over 30 µg/mL. Also, the half-inhibitory concentration (IC50) in assay [2] (setting [4]) stood at 30 µg/mL (≈ 118 µM).
Regarding `CCCCCCCCCCCCSC(=O)CC1CC(=O)N(CC)C(=O)C1`, the EC50 in the assay with RAW264.7 [1] was 20 µg/mL. Further, in assay [2] (setting [4]), the IC50 stood at 2 µg/mL (≈ 5.21 µM).
Take `CCCCCCCCCCCCNC(=O)CC1CC(=O)NC(=O)C1`: in the assay with RAW264.7 [1], the EC50 is 25 µg/mL. In addition, the IC50 in assay [2] (setting [4]) is over 30 µg/mL.
Turning to `CCCCCCCCCCCCSC(=O)CC1CC(=O)NC(=O)C1`, the EC50 in the assay with RAW264.7 [1] amounted to 15 µg/mL. Also, the IC50 in assay [2] (setting [4]) was determined as 1 µg/mL (≈ 2.81 µM).
On the same counts, the results for `O=C1CC(C/C=C/C(=O)c2cccc(OCc3ccccc3)c2)CC(=O)N1` are 8 µg/mL and 3 µg/mL (≈ 8.26 µM).
As to `CCCCCCCCCCCCOC(=O)CC1CC(=O)NC(=O)C1`, the EC50 in the assay on RAW264.7 [1] was over 30 µg/mL. Moreover, in assay [2] (setting [4]), the IC50 was over 30 µg/mL.
As to `CCCCCCOC(=O)CC1CC(=O)NC(=O)C1`, in the assay with RAW264.7 [1], the EC50 was over 30 µg/mL. Besides, in assay [2] (setting [4]), the 50% inhibitory concentration (IC50) is over 30 µg/mL.
On to `O=C1CC(CC(=O)NC2CCCCC2)CC(=O)N1`, for which the EC50 in the assay with RAW264.7 [1] was over 30 µg/mL. Further, the IC50 in assay [2] (setting [4]) was over 30 µg/mL.
Take `CCCCCCNC(=O)CC1CC(=O)NC(=O)C1`: the EC50 in the assay with RAW264.7 [1] is over 30 µg/mL. For the same molecule, the IC50 in assay [2] (setting [4]) is over 30 µg/mL.
Take `CCCCCCSC(=O)CC1CC(=O)NC(=O)C1`: in the assay with RAW264.7 [1], the EC50 was over 30 µg/mL. In addition, the IC50 in assay [2] (setting [4]) was found to be 15 µg/mL (≈ 55.3 µM).
For `CCCCCCCCCCCCSC(=O)CC1CC(=O)N(C)C(=O)C1` the same measures were 8 µg/mL and 2 µg/mL (≈ 5.41 µM).
Turning to `C/C=C\C(C)=C\[C@@H](C)C(=O)C[C@H](O)CC1CC(=O)NC(=O)C1`, the result with RAW264.7 [3], in the assay with Jurkat and in the assay on T-cell was Active. Further, the IC50 result in assay [2] (raw264.7) is reported as “Active”.
Consider `O=C(O)CC1CC(=O)NC(=O)C1`, for which the EC50 in the assay on RAW264.7 [1] is over 30 µg/mL. For the same molecule, in assay [2] (setting [4]), the half-maximal inhibitory concentration (IC50) is over 30 µg/mL.
